Data: US20030007948A1, “Adhesive treatment for skin yeast infections” (CLOSURE MEDICAL CORPORATION, priority 2001, published 2003)

Assay: Observation of haloprogin / 2-octyl cyanoacrylate monomer composition after preparation
Assay type: physicochemical
Details: 30 mg haloprogin in 2 mL 2-octyl cyanoacrylate monomer
Protocol: A 2-octyl cyanoacrylate monomer composition is prepared by adding 30 mg of haloprogin, an anti-fungal agent, to 2 mL of 2-octyl cyanoacrylate monomer. The mixture is sealed in a glass vial and stirred. The characteristics of the composition are observed at about one minute after preparation and later at least twenty-four hours after preparation.

premature polymerization of the monomer (sealed glass vial, about one minute and at least twenty-four hours after preparation): does not cause premature polymerization
solubility in the monomer (observed at about one minute and at least twenty-four hours after preparation): soluble
SMILES: Clc1cc(Cl)c(OCC#CI)cc1Cl [haloprogin]
